Values of other authors in patent publication US20090098211A1, “SOLID DOSAGE FORMS” (priority 2007, published 2009).

In the case of CN1CC(=O)N2[C@H](c3ccc4c(c3)OCO4)c3[nH]c4ccccc4c3C[C@@H]2C1=O [Tadalafil, (6R-trans)-6-(1,3-benzodioxol-5-yl)-2,3,6,7,12,12a-hexahydro-2-methyl-pyrazino[1′,2′:1,6]pyrido[3,4-b]indole-1,4-dione], the “solubility in water (in words)” value (water) is given as “practically insoluble in water” and the water solubility (water at 25° C.) is given as “about 2 μg per mL”.
